Reference: patent publication US9156811B2 (priority 2008, dated 2015)
Counter-ions that a name gives are not always drawn.

These compounds were tested on Trypanosome (T. brucei brucei) (assay: In-vitro antitrypanosomal efficacy assay (cell growth, resazurin)). Settings: not given.
Assay type: cell-based

| SMILES | ED50 (μM) T. brucei |
| --- | --- |
| Cc1nn(C)c(C)c1N(C(F)F)[S+](=O)([O-])c1c(Cl)cc(CCCC2CCNCC2)cc1Cl [DDD100096, 2,6-Dichloro-N-(difluoromethyl)-4-(3-(piperidin-4-yl)propyl)-N-(1,3,5-trimethyl-4H-pyrazol-4-yl)benzenesulfonamide hydrochloride salt] | 0.003 µM |

Same assay, conditions: T. brucei brucei, blood stream form, variant 221

| SMILES | ED50 (μM) T. brucei |
| --- | --- |
| Cc1nn(C)c(C)c1N(CC(F)F)[S+](=O)([O-])c1c(Cl)cc(CCCN2CCCN(C)CC2)cc1Cl [DDD100802] | 0.004 µM |
| Cc1nn(C)c(C)c1N(CC(F)F)[S+](=O)([O-])c1c(Cl)cc(CCCC2CCN(C)CC2)cc1Cl [DDD100160] | 0.013 µM |
| Cc1nn(C)c(C)c1N(C)[S+](=O)([O-])c1c(Cl)cc(CCCCCCn2ccnc2)cc1Cl [DDD99833] | 0.018 µM |
| Cc1nn(C)c(C)c1N(CC(F)(F)F)[S+](=O)([O-])c1c(Cl)cc(CCCOC2CCN(C)CC2)cc1Cl [DDD100803] | 0.008 µM |
| CCc1nccn1CCCCCCc1cc(Cl)c([S+](=O)([O-])N(c2c(C)nn(C)c2C)C(F)F)c(Cl)c1 [DDD100794] | 0.160 µM |
| Cc1c(N[S+](=O)([O-])c2ccc(-c3cccc(CN4[C@@H](C)CC[C@@H]4C)c3)cc2)c(CC(C)C)nn1C [DDD100790] | 0.269 µM |
| CCN(c1c(C)nn(C)c1C)[S+](=O)([O-])c1c(Cl)cc(CCCC2CCN(C)CC2)cc1Cl [DDD100088] | 0.003 µM |
| Cc1nn(C)c(C)c1N(C(F)F)[S+](=O)([O-])c1c(Cl)cc(CCCN2CCCNCC2)cc1Cl [DDD100166] | 0.002 µM |
| Cc1nn(C)c(C)c1N(CC(F)F)[S+](=O)([O-])c1c(Cl)cc(CCCN2CCCNCC2)cc1Cl [DDD100142] | 0.014 µM |
| Cc1c(N[S+](=O)([O-])c2ccc(-c3cccc(C(C)(C)N)c3)cc2)c(CC(C)C)nn1C [DDD100870] | 0.013 µM |
| Cc1nn(C)c(C)c1N(CC(F)(F)F)[S+](=O)([O-])c1c(Cl)cc(CCCCC2CCN(C)CC2)cc1Cl [DDD100165] | 0.020 µM |
| Cc1nn(C)c(C)c1N(C)[S+](=O)([O-])c1ccc(CCCCCCCn2ccnc2)cc1 [DDD99838] | >1 µM |
| Cc1nn(C)c(C)c1N[S+](=O)([O-])c1ccc(CCCCC2CCN(C)CC2)cc1 [DDD99830] | 0.020 µM |
| Cc1nn(C)c(C)c1N(CC(F)(F)F)[S+](=O)([O-])c1c(Cl)cc(CCCCC2CCNCC2)cc1Cl [DDD100167] | 0.014 µM |
| Cc1nn(C)c(C)c1N(CC(F)(F)F)[S+](=O)([O-])c1c(Cl)cc(CCCC2CCNCC2)cc1Cl [DDD100151] | 0.034 µM |

Same assay, conditions: T. brucei cell growth

| SMILES | ED50 (μM) T. brucei |
| --- | --- |
| Cc1c(N[S+](=O)([O-])c2ccc(-c3cccc(C4CCNCC4)c3)cc2)c(CC(C)C)nn1C [DDD099757] | 0.061 µM |
| Cc1c(N(C)[S+](=O)([O-])c2ccc(-c3cccc(C4CCNCC4)c3)cc2)c(CC(C)C)nn1C [DDD99815] | 0.123 µM |
| Cc1c(N[S+](=O)([O-])c2c(Cl)cc(Br)cc2Cl)c(CC(C)C)nn1C [DDD88198, 4-Bromo-2,6-dichloro-N-(3-isobutyl-1,5-dimethyl-1H-pyrazol-4-yl)-benzenesulfonamide] | 2.3 µM |
| Cn1cc(N[S+](=O)([O-])c2ccc(-c3ccnc(N4CCNCC4)c3)cc2)cn1 [DDD86474, N-(1-Methyl-1H-pyrazol-4-yl)-4-(2-piperazin-1-yl-pyridin-4-yl)-benzenesulfonamide] | 0.65 µM |
| Cc1nn(C)c(C)c1N[S+](=O)([O-])c1ccc(CCCN2CCN(C)CC2)cc1 [DDD88191, 4-[3-(4-Methyl-piperazin-1-yl)-propyl]-N-(1,3,5-trimethyl-1H-pyrazol-4-yl)-benzenesulfonamide] | 0.67 µM |
| Cc1nn(C)c(C)c1N[S+](=O)([O-])c1ccc(-c2cccc(CN3CCOCC3)c2)cc1 [DDD86314, 3′-Morpholin-4-ylmethyl-biphenyl-4-sulfonic acid (1,3,5-trimethyl-1H-pyrazol-4-yl)-amide] | >1 µM |
| CCc1ccc([S+](=O)([O-])Nc2c(C)nn(C)c2C)cc1 [DDD71231] | >1 µM |
| Cc1nn(C)c(C)c1N[S+](=O)([O-])c1ccc(-c2cccc(CNCc3ccccc3)c2)cc1 [DDD87765, 3′-(Benzylamino-methyl)-biphenyl-4-sulfonic acid (1,3,5-trimethyl-1H-pyrazol-4-yl)-amide] | >1 µM |
| Cc1nn(C)c(C)c1N[S+](=O)([O-])c1ccc(-c2cccc(CCO)c2)cc1 [DDD87751, 3′-(2-Hydroxy-ethyl)-biphenyl-4-sulfonic acid (1,3,5-trimethyl-1H-pyrazol-4-yl)-amide] | >1 µM |
| Cc1nn(C)c(C)c1NS(=O)(=O)c1ccc(C#CCCC2CCN(C)CC2)cc1 [DDD99761] | 0.240 µM |
| Cc1nn(C)c(C)c1N[S+](=O)([O-])c1ccc(N2CCC(NC3CCN(Cc4ccccc4)C3)CC2)nc1 (stereo not shown) [DDD86473] | >1 µM |
| Cc1nn(C)c(C)c1N[S+](=O)([O-])c1ccc(N(C)CCO)nc1 [DDD86307] | >1 µM |
| Cc1nn(C)c(C)c1N[S+](=O)([O-])c1ccc(Cl)nc1 [DDD73235, 6-Chloro-pyridine-3-sulfonic acid (1,3,5-trimethyl-1H-pyrazol-4-yl)-amide] | >1 µM |
| Cn1cc(N[S+](=O)([O-])c2c(Cl)cc(-c3ccnc(N4CCNCC4)c3)cc2Cl)cn1 [DDD86478, 2,6-Dichloro-N-(1-methyl-1H-pyrazol-4-yl)-4-(2-piperazin-1-yl-pyridin-4-yl)-benzenesulfonamide] | 0.24 µM |
| CCN(CC)Cc1ccccc1-c1ccc([S+](=O)([O-])Nc2c(C)nn(C)c2C)cc1 [DDD87758, 2′-Diethylaminomethyl-biphenyl-4-sulfonic acid (1,3,5-trimethyl-1H-pyrazol-4-yl)-amide] | >1 µM |
| Cc1nn(C)c(C)c1N[S+](=O)([O-])c1ccc(NCCN2CCN(c3ccccc3)CC2)nc1 [DDD86301] | >1 µM |
| Cc1nn(C)c(C)c1N(C)[S+](=O)([O-])c1ccc(-c2cccc(CC3CCN(C)CC3)c2)cc1 [DDD90091] | 0.063 µM |
| Cc1nn(C)c(C)c1N[S+](=O)([O-])c1ccc(-c2ccnc(N3CCNCC3)c2)cc1 [DDD86213, 4-(2-piperazin-1-yl-pyridin-4-yl)-N-(1,3,6-trimethyl-1H-pyrazol-4-yl)-benzenesulfonamide] | 0.003 µM |
| Cc1nn(C)c(C)c1N[S+](=O)([O-])c1c(Cl)cc(-c2ccccc2OCC(C)C)cc1Cl [DDD73273] | >1 µM |
| Cc1nn(C)c(C)c1N[S+](=O)([O-])c1ccc(NCCN2CCN(Cc3ccccc3)CC2)nc1 [DDD86472] | >1 µM |

| SMILES | ED50 (μM) T. brucei |
| --- | --- |
| CNCc1cccc(-c2ccc([S+](=O)([O-])Nc3c(CC(C)C)nn(C)c3C)cc2)c1 [DDD99748] | 0.036 µM |
| CCN(CC)Cc1cccc(-c2ccc([S+](=O)([O-])Nc3c(C)nn(C)c3C)cc2)c1 [DDD86312, 3′-Diethylaminomethyl-biphenyl-4-sulfonic acid (1,3,5-trimethyl-1H-pyrazol-4-yl)-amide] | 0.07 µM |
| Cc1nn(C)c(C)c1N(C)[S+](=O)([O-])c1ccc(CCCCCN(C)C)cc1 [DDD90145] | 1.00 µM |
| Cc1nn(C)c(C)c1N[S+](=O)([O-])c1c(Cl)cccc1Cl [DDD71239] | 23.2 µM |
| CCCOc1cc(CN2CCN(C)CC2)cc(-c2ccc([S+](=O)([O-])Nc3c(C)nn(C)c3C)cc2)c1 [DDD88187, 5′-(4-Methyl-piperazin-1-ylmethyl)-3′-propoxy-biphenyl-4-sulfonic acid (1,3,5-trimethyl-1H-pyrazol-4-yl)-amide] | 2.15 µM |
| Cc1c(N[S+](=O)([O-])c2ccc(CCCC3CCNCC3)cc2)c(CC(C)C)nn1C [DDD90144] | 0.034 µM |
| Cc1nn(C)c(C)c1N[S+](=O)([O-])c1ccc(-c2cccc(C3CCNCC3)c2)cc1 [DDD87768, 3′-Piperidin-4-yl-biphenyl-4-sulfonic acid (1,3,5-trimethyl-1H-pyrazol-4-yl)-amide] | 0.06 µM |
| Cc1nn(C)c(C)c1N[S+](=O)([O-])c1ccc(NCCc2ccccc2)nc1 [DDD73319] | 8.4 µM |
| Cc1nn(C)c(CC(C)C)c1N[S+](=O)([O-])c1c(Cl)cc(Br)cc1Cl [DDD88197, 4-Bromo-2,6-dichloro-N-(5-isobutyl-1,3-dimethyl-1H-pyrazol-4-yl)-benzenesulfonamide] | 45.9 µM |
| Cc1nn(C)c(C)c1N[S+](=O)([O-])c1ccc(NCCN2CCCCC2)nc1 [DDD85635] | 48.1 µM |
| Cc1c(N[S+](=O)([O-])c2ccc(-c3cccc(CN(C)C)c3F)cc2)c(CC(C)C)nn1C [DDD99816] | 0.031 µM |
| Cc1nn(C)c(C)c1N(C)[S+](=O)([O-])c1c(Cl)cc(CCCC2CCN(C)CC2)cc1Cl [DDD90146] | 0.002 µM |
| Cc1nn(C)c(C)c1N[S+](=O)([O-])c1cc(Cl)cc(Cl)c1O [DDD73229] | >1 µM |
| Cc1nn(C)c(C)c1N[S+](=O)([O-])c1ccc(-c2ccnc(N3CCNC(C)C3)c2)cc1 (stereo not shown) [DDD87748] | 0.001 µM |
| Cc1nn(C)c(C)c1N[S+](=O)([O-])c1c(Cl)cc(-c2ccnc(Cl)c2)cc1Cl [DDD86209, 2,6-Dichloro-4-(2-chloro-pyridin-4-yl)-N-(1,3,5-trimethyl-1H-pyrazol-4-yl)-benzenesulfonamide] | >1 µM |
| Cc1nn(C)c(C)c1N[S+](=O)([O-])c1ccc(NC2CCN(Cc3ccccc3)C2)nc1 (stereo not shown) [DDD86294] | >1 µM |
| Cc1nn(C)c(C)c1N[S+](=O)([O-])c1c(Cl)cc(-c2ccc(OC(F)(F)F)cc2)cc1Cl [DDD73323] | >1 µM |
| Cc1ccc(SCc2ccc([S+](=O)([O-])Nc3c(C)nn(C)c3C)cc2)cc1 [DDD85642] | >1 µM |
| Cc1nn(C)c(C)c1N(C)[S+](=O)([O-])c1ccc(Br)cc1 [DDD87766, 4-Bromo-N-methyl-N-(1,3,5-trimethyl-1H-pyrazol-4-yl)-benzenesulfonamide] | >1 µM |
